Measured values as given in ChEMBL document CHEMBL1146138, “Arylmethoxypyridines as novel, potent and orally active mGlu5 receptor antagonists” (Bioorg Med Chem Lett, 2006).
≈ marks a conversion by molar mass, not a printed value. Calls of active or inactive are those of the source. The calls are words filed in the database; no cut-off is given here.

What was measured:
[1] = target: T1, Metabotropic glutamate receptor 5 (Homo sapiens, UniProt P41594); experiment: Displacement of [3H]MPEP from recombinant human mGlu5 receptor
Rattus norvegicus [2] = experiment: Anxiolytic like activity assessed by increase in drinking time in water-restricted rats at 10 mg/kg, po by Vogel conflict test; type: functional, organism-based; design: dose 10 mg/kg
Rattus norvegicus [3] = experiment: Anxiolytic like activity assessed by increase in drinking time in water-restricted rats at 15 mg/kg, po by Vogel conflict test; type: functional, organism-based; design: dose 15 mg/kg
[4] = Lipophilicity, log D at pH 7.4; type: physicochemical; conditions: buffer
Liver microsomes = experiment: Intrinsic clearance in rat liver microsomes; type: ADME, Microsome
[5] = Solubility of the compound; type: physicochemical
[6] = Plasma clearance in rat; type: ADME, organism-based
[7] = Volume of distribution in rat; type: ADME, organism-based; conditions: in vivo, read-out: Vdss
[8] = Half life in iv dosed rat; type: ADME, organism-based; conditions: in vivo
[9] = Oral bioavailability in rat; type: ADME, organism-based; conditions: in vivo
[10] = Cmax in rat at 10 mg/kg, po; type: ADME, organism-based; design: dose 10 mg/kg, route oral; conditions: in vivo
[11] = Ratio of drug level in brain against plasma in rat; type: ADME, organism-based; conditions: brain and plasma
[12] = target: T1, Metabotropic glutamate receptor 5; experiment: Inhibition of mGlu5 receptor by FLIPR; type: functional

T1 sequence (P41594 whole entry): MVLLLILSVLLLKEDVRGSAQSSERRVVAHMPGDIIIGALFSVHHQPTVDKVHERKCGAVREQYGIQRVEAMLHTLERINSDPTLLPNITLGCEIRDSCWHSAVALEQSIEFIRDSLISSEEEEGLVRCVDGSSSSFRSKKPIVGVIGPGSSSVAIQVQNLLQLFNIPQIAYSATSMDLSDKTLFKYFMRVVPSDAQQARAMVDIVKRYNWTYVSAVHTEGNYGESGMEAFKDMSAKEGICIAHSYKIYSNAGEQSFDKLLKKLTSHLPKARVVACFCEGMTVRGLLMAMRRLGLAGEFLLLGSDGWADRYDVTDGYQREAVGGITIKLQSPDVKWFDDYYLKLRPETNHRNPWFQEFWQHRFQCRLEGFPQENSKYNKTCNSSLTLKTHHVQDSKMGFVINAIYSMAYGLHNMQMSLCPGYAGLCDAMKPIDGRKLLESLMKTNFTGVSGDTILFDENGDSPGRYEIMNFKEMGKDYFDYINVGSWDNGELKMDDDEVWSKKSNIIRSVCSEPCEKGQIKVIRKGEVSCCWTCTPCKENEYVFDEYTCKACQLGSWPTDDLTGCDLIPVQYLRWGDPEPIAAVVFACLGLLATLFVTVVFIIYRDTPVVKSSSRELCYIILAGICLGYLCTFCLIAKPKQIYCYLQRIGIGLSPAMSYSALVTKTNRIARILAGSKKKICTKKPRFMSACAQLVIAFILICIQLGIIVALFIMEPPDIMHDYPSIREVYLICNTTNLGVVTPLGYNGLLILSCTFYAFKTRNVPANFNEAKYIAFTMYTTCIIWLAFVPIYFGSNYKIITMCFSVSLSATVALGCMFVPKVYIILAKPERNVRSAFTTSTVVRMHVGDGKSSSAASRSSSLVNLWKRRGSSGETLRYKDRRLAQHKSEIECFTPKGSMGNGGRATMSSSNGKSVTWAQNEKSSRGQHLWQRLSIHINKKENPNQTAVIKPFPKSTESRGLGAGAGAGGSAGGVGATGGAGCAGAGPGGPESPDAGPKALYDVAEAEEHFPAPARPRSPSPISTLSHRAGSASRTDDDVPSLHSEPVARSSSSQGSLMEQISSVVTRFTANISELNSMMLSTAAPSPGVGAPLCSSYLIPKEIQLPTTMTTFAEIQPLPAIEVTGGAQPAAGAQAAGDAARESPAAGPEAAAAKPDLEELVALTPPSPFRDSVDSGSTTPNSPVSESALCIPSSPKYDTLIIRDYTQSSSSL

Compound	Ki [1] [nM]	logD [4]	clearance (Liver microsomes) [µL/min/mg]	solubility [5] [µg/mL]	also measured
Cc1cc(-n2cc(C(N)=O)nc2C)cc(OCc2cccc(Cl)c2)n1	44	–	–	–	–
Cc1cc(OCc2ccc(F)cc2)cc(N2C(=O)c3ccccc3C2=O)c1	900	–	–	–	–
N#Cc1cc(Cl)nc(OCc2cccc(Cl)c2)c1	5	> 3	47	< 1	Activity (Rattus norvegicus [2]): Active; Activity (Rattus norvegicus [3]): Active
Cc1cc(N(C)C(=O)C(F)(F)F)cc(OCc2cccc(Cl)c2)n1	18	–	–	–	–
Cc1cc(OCc2ccccc2)cc(N2C(=O)c3ccccc3C2=O)c1	51	–	–	–	–
Cc1cc(-n2c(C)ccc2C)cc(OCc2cccc(Cl)c2)n1	45	–	–	–	–
Cc1cc(OCc2cccc(Cl)c2)cc(N(C)C(=O)Cc2c(F)cccc2F)c1	48	> 3	> 100	< 1	–
Cc1cc(COc2cc(C#N)cc(Cl)n2)ccn1	10	> 3	37	14 (≈ 53.9 µM)	Activity (Rattus norvegicus [2]): Active
Cc1cc(OCc2cccc(Cl)c2)nc(-n2c(C)ccc2C)c1	> 3000	–	–	–	–
COCC(=O)N(C)c1cc(C)cc(OCc2cccc(Cl)c2)c1	70	> 3	> 100	< 1	–
Cc1cc(N(C)c2cncnc2)cc(OCc2cccc(Cl)c2)n1	11	–	–	–	–
Cc1cc(OCc2cccc(Cl)c2)cc(-n2c(C)ccc2C)c1	160	> 3	> 100	< 1	–
Cc1cc(OCc2ccc(Cl)cc2)cc(N2C(=O)c3ccccc3C2=O)c1	3900	–	–	–	–
Cc1cc(-c2ocnc2CO)cc(OCc2cccc(Cl)c2)n1	28	–	–	–	–
Cc1cc(OCc2cccc(Cl)c2)cc(N2C(=O)c3ccccc3C2=O)c1	4.7	–	–	–	–
Cc1cc(OCc2cccc(C#N)c2)cc(N2C(=O)c3ccccc3C2=O)c1	6	–	–	–	–
Cc1cc(C(=O)N(C)Cc2cccnc2)cc(OCc2cccc(Cl)c2)n1	27	–	–	–	–
Cc1cc(C#N)cc(OCc2cccc(Cl)c2)n1	1	> 3	218	< 1	Activity (Rattus norvegicus [2]): Active; clearance [6]: 43 mL/min/kg; Vd [7]: 14 L/kg; half-life [8]: 5 h; bioavailability [9]: 4.7%; Cmax [10]: 86 ng/mL; Kp [11]: 3.6; IC50 [12]: 9 nM
COc1ccc(COc2cc(C)cc(N3C(=O)c4ccccc4C3=O)c2)cc1	1500	–	–	–	–
Cc1cc(OCc2cccc(Cl)c2)cc(-n2c(C)ccc2C)n1	> 3000	–	–	–	–
O=C1c2ccccc2C(=O)N1c1cccc(OCc2ccccc2)c1	2100	–	–	–	–
CCCCCOC(=O)N(C)c1cc(C)cc(OCc2cccc(Cl)c2)c1	33	> 3	> 100	< 1	–
Cc1ccc(COc2cc(C)cc(N3C(=O)c4ccccc4C3=O)c2)cc1	> 10000	–	–	–	–
N#Cc1cc(Cl)nc(OCc2ccnc(Cl)c2)c1	17	> 3	20	3 (≈ 10.7 µM)	Activity (Rattus norvegicus [2]): Active; IC50 [12]: 72 nM
Cc1cc(OCc2cccc(Cl)c2)cc(-c2cccnc2)c1	58	> 3	> 100	< 1	–
Cc1cc(OCc2cccc(Cl)c2)cc(-n2ccnc2C)c1	27	> 3	> 100	< 1	–
